Marks after values point to notes of the source that are not given here.
Assays:
Format in all cases: in vivo
[1] = system: CCl4 administration in mice; test: Hexobarbitone sleep time after CCl4 administration
[2] = system: acetaminophen (APAP) in mice; test: Hepatoprotective activity, curative study, acetaminophen (APAP) after diethyl-ether
[3] = system: CCl4 induced hepatic injury in rats; test: Hepatoprotective activity, prophylactic study, CCl4
[4] = system: CCl4 induced hepatic injury in rats; test: Hepatoprotective activity, curative study, CCl4
[5] = 12.5 mg/kg p.o. 1 h before CCl4, mice
[6] = 25 mg/kg p.o. 1 h before CCl4, mice
[7] = 50 mg/kg p.o. 1 h before CCl4, mice
[8] = 100 mg/kg p.o. 1 h before CCl4, mice
[9] = 12.5 mg/kg p.o. + APAP, curative
[10] = 100 mg/kg p.o. + APAP, curative
[11] = TCA alone 100 mg/kg p.o., no APAP, curative study
[12] = 12.5 mg/kg p.o. + CCl4, prophylactic
[13] = 25 mg/kg p.o. + CCl4, prophylactic
[14] = 50 mg/kg p.o. + CCl4, prophylactic
[15] = 100 mg/kg p.o. + CCl4, prophylactic
[16] = TCA alone 100 mg/kg p.o., no CCl4, prophylactic study
[17] = 12.5 mg/kg p.o. + CCl4, curative
[18] = 100 mg/kg p.o. + CCl4, curative
[19] = TCA alone 100 mg/kg p.o., no CCl4, curative study

Q: What does the source list for `CCCCCCCC/C=C/CCCCCCCCCCCCCC(=O)O` [TCA, t-Tetracos-15-enoic acid]?
A: Hexobarbitone Hepatoprotection [1, 5]: 35.55 ± 5.78%; Hexobarbitone Sleeping time [1, 5]: 44.16 ± 1.87*^c min; Hexobarbitone Hepatoprotection [1, 6]: 55.14 ± 7.16%; Hexobarbitone Sleeping time [1, 6]: 37.83 ± 2.31**^c min; Hexobarbitone Hepatoprotection [1, 7]: 74.21 ± 6.27%; Hexobarbitone Sleeping time [1, 7]: 31.66 ± 2.31**^c min; Hexobarbitone Hepatoprotection [1, 8]: 85.04 ± 7.12%; Hexobarbitone Sleeping time [1, 8]: 28.16 ± 2.30**^c min; Hexobarbitone Sleeping time ([1]; TCA alone 100 mg/kg p.o., no CCl4, mice): 21.85 ± 1.34 min; Serum ALP [2, 9]: 50.41 ± 3.07^NS μmole of p-nitophenol formed/min/L; Serum ALP, hepatoprotective activity percent [2, 9]: (21.27 ± 9.50) percent; Serum GOT [2, 9]: 1079.43 ± 98.66^NS Units; Serum GOT, hepatoprotective activity percent [2, 9]: (25.66 ± 7.72) percent; Serum GPT [2, 9]: 431.85 ± 25.52 Units; Serum GPT, hepatoprotective activity percent [2, 9]: (49.67 ± 2.81) percent; Serum Triglycerides [2, 9]: 14.72 ± 0.68^NS mg %; Serum Triglycerides, hepatoprotective activity percent [2, 9]: (28.28 ± 8.27) percent; Serum ALP ([2]; 25 mg/kg p.o. + APAP, curative): 46.23 ± 1.73 μmole of p-nitophenol formed/min/L; Serum ALP, hepatoprotective activity percent ([2]; 25 mg/kg p.o. + APAP, curative): (34.15 ± 5.39) percent; Serum GOT ([2]; 25 mg/kg p.o. + APAP, curative): 880.10 ± 60.29 Units; Serum GOT, hepatoprotective activity percent ([2]; 25 mg/kg p.o. + APAP, curative): (41.26 ± 4.72) percent; Serum GPT ([2]; 25 mg/kg p.o. + APAP, curative): 320.07 ± 41.33 Units; Serum GPT, hepatoprotective activity percent ([2]; 25 mg/kg p.o. + APAP, curative): (67.52 ± 7.71) percent; Serum Triglycerides ([2]; 25 mg/kg p.o. + APAP, curative): 13.47 ± 0.89^NS mg %; Serum Triglycerides, hepatoprotective activity percent ([2]; 25 mg/kg p.o. + APAP, curative): (43.32 ± 10.80) percent; Serum ALP ([2]; 50 mg/kg p.o. + APAP, curative): 41.44 ± 1.27 μmole of p-nitophenol formed/min/L; Serum ALP, hepatoprotective activity percent ([2]; 50 mg/kg p.o. + APAP, curative): (49.04 ± 3.94) percent; Serum GOT ([2]; 50 mg/kg p.o. + APAP, curative): 619.36 ± 88.89 Units; Serum GOT, hepatoprotective activity percent ([2]; 50 mg/kg p.o. + APAP, curative): (61.67 ± 6.96) percent; Serum GPT ([2]; 50 mg/kg p.o. + APAP, curative): 282.74 ± 32.96 Units; Serum Triglycerides ([2]; 50 mg/kg p.o. + APAP, curative): 12.34 ± 0.85 mg %; Serum Triglycerides, hepatoprotective activity percent ([2]; 50 mg/kg p.o. + APAP, curative): (56.84 ± 10.23) percent; Serum ALP [2, 10]: 35.08 ± 2.18 μmole of p-nitophenol formed/min/L; Serum ALP, hepatoprotective activity percent [2, 10]: (68.82 ± 6.78) percent; Serum GOT [2, 10]: 310.53 ± 45.32 Units; Serum GOT, hepatoprotective activity percent [2, 10]: (85.85 ± 4.25) percent; Serum GPT [2, 10]: 235.59 ± 22.77 Units; Serum GPT, hepatoprotective activity percent [2, 10]: (83.33 ± 1.99) percent; Serum Triglycerides [2, 10]: 10.87 ± 0.69 mg %; Serum Triglycerides, hepatoprotective activity percent [2, 10]: (74.48 ± 8.37) percent; Serum ALP [2, 11]: 22.57 ± 2.95 μmole of p-nitophenol formed/min/L; Serum GOT [2, 11]: 133.77 ± 20.84 Units; Serum GPT [2, 11]: 129.65 ± 24.84 Units; Serum Triglycerides [2, 11]: 7.43 ± 0.89 mg %; Serum ALP [3, 12]: 45.25 ± 2.37^NS μmole of p-nitrophenol formed/min/L; Serum ALP, hepatoprotective activity percent [3, 12]: (26.32 ± 6.55) percent; Serum Bilirubin [3, 12]: 0.47 ± 0.01 mg %; Serum Bilirubin, hepatoprotective activity percent [3, 12]: (47.98 ± 2.02) percent; Serum GOT [3, 12]: 695.16 ± 67.28 Units; Serum GOT, hepatoprotective activity percent [3, 12]: (33.87 ± 7.99) percent; Serum GPT [3, 12]: 992.34 ± 73.25 Units; Serum GPT, hepatoprotective activity percent [3, 12]: (41.52 ± 4.97) percent; Serum Triglycerides [3, 12]: 13.51 ± 0.51^NS mg %; Serum Triglycerides, hepatoprotective activity percent [3, 12]: (26.40 ± 7.84) percent; Serum ALP [3, 13]: 39.48 ± 2.46 μmole of p-nitrophenol formed/min/L; Serum ALP, hepatoprotective activity percent [3, 13]: (43.28 ± 7.81) percent; Serum Bilirubin [3, 13]: 0.42 ± 0.01 mg %; Serum Bilirubin, hepatoprotective activity percent [3, 13]: (55.33 ± 2.86) percent; Serum GOT [3, 13]: 674.44 ± 53.20 Units; Serum GOT, hepatoprotective activity percent [3, 13]: (36.33 ± 6.32) percent; Serum GPT [3, 13]: 924.39 ± 39.82 Units; Serum GPT, hepatoprotective activity percent [3, 13]: (46.10 ± 2.70) percent; Serum Triglycerides [3, 13]: 12.11 ± 0.70^NS mg %; Serum Triglycerides, hepatoprotective activity percent [3, 13]: (47.72 ± 11.33) percent; Serum ALP [3, 14]: 35.19 ± 2.90 μmole of p-nitrophenol formed/min/L; Serum ALP, hepatoprotective activity percent [3, 14]: (56.81 ± 9.15) percent; Serum Bilirubin [3, 14]: 0.34 ± 0.01 mg %; Serum Bilirubin, hepatoprotective activity percent [3, 14]: (67.67 ± 2.30) percent; Serum GOT [3, 14]: 543.99 ± 79.93 Units; Serum GOT, hepatoprotective activity percent [3, 14]: (51.82 ± 9.94) percent; Serum GPT [3, 14]: 636.69 ± 44.49 Units; Serum GPT, hepatoprotective activity percent [3, 14]: (65.66 ± 3.02) percent; Serum Triglycerides [3, 14]: 11.89 ± 0.75^NS mg %; Serum ALP [3, 15]: 30.14 ± 2.54 μmole of p-nitrophenol formed/min/L; Serum ALP, hepatoprotective activity percent [3, 15]: (72.92 ± 8.07) percent; Serum Bilirubin [3, 15]: 0.26 ± 0.02 mg %; Serum Bilirubin, hepatoprotective activity percent [3, 15]: (79.04 ± 3.57) percent; Serum GOT [3, 15]: 432.08 ± 37.38 Units; Serum GOT, hepatoprotective activity percent [3, 15]: (65.10 ± 4.50) percent; Serum GPT [3, 15]: 419.72 ± 17.60 Units; Serum GPT, hepatoprotective activity percent [3, 15]: (80.39 ± 1.19) percent; Serum Triglycerides [3, 15]: 11.20 ± 0.68^NS mg %; Serum Triglycerides, hepatoprotective activity percent [3, 15]: (61.75 ± 1.44) percent; Serum ALP [3, 16]: 23.15 ± 2.92 μmole of p-nitrophenol formed/min/L; Serum Bilirubin [3, 16]: 0.17 ± 0.02 mg %; Serum GOT [3, 16]: 110.53 ± 25.55 Units; Serum GPT [3, 16]: 102.66 ± 28.41 Units; Serum Triglycerides [3, 16]: 6.98 ± 0.79 mg %; Serum ALP [4, 17]: 51.81 ± 3.94^NS μmole of p-nitrophenol formed/min/L; Serum ALP, hepatoprotective activity percent [4, 17]: (27.87 ± 9.48) percent; Serum Bilirubin [4, 17]: 0.54 ± 0.02 mg %; Serum Bilirubin, hepatoprotective activity percent [4, 17]: (44.52 ± 3.66) percent; Serum GOT [4, 17]: 524.23 ± 34.93 Units; Serum GOT, hepatoprotective activity percent [4, 17]: (37.12 ± 5.14) percent; Serum GPT [4, 17]: 1001.86 ± 48.55 Units; Serum GPT, hepatoprotective activity percent [4, 17]: (35.59 ± 3.37) percent; Serum Triglycerides [4, 17]: 12.57 ± 0.61^NS mg %; Serum Triglycerides, hepatoprotective activity percent [4, 17]: (24.12 ± 10.07) percent; Serum ALP ([4]; 25 mg/kg p.o. + CCl4, curative): 50.92 ± 1.62 μmole of p-nitrophenol formed/min/L; Serum ALP, hepatoprotective activity percent ([4]; 25 mg/kg p.o. + CCl4, curative): (34.03 ± 3.89) percent; Serum Bilirubin ([4]; 25 mg/kg p.o. + CCl4, curative): 0.47 ± 0.03 mg %; Serum Bilirubin, hepatoprotective activity percent ([4]; 25 mg/kg p.o. + CCl4, curative): (53.51 ± 4.06) percent; Serum GOT ([4]; 25 mg/kg p.o. + CCl4, curative): 448.28 ± 54.88 Units; Serum GOT, hepatoprotective activity percent ([4]; 25 mg/kg p.o. + CCl4, curative): (48.31 ± 8.808) percent; Serum GPT ([4]; 25 mg/kg p.o. + CCl4, curative): 772.68 ± 47.66 Units; Serum GPT, hepatoprotective activity percent ([4]; 25 mg/kg p.o. + CCl4, curative): (51.52 ± 3.31) percent; Serum Triglycerides ([4]; 25 mg/kg p.o. + CCl4, curative): 11.81 ± 1.05^NS mg %; Serum Triglycerides, hepatoprotective activity percent ([4]; 25 mg/kg p.o. + CCl4, curative): (36.23 ± 18.23) percent; Serum ALP ([4]; 50 mg/kg p.o. + CCl4, curative): 43.63 ± 2.82 μmole of p-nitrophenol formed/min/L; Serum ALP, hepatoprotective activity percent ([4]; 50 mg/kg p.o. + CCl4, curative): (51.57 ± 6.78) percent; Serum Bilirubin ([4]; 50 mg/kg p.o. + CCl4, curative): 0.39 ± 0.02 mg %; Serum Bilirubin, hepatoprotective activity percent ([4]; 50 mg/kg p.o. + CCl4, curative): (64.25 ± 3.76) percent; Serum GOT ([4]; 50 mg/kg p.o. + CCl4, curative): 365.43 ± 29.43 Units; Serum GOT, hepatoprotective activity percent ([4]; 50 mg/kg p.o. + CCl4, curative): (60.50 ± 4.33) percent; Serum GPT ([4]; 50 mg/kg p.o. + CCl4, curative): 582.12 ± 37.77 Units; Serum GPT, hepatoprotective activity percent ([4]; 50 mg/kg p.o. + CCl4, curative): (64.76 ± 2.62) percent; Serum Triglycerides ([4]; 50 mg/kg p.o. + CCl4, curative): 11.06 ± 0.61 mg %; Serum Triglycerides, hepatoprotective activity percent ([4]; 50 mg/kg p.o. + CCl4, curative): (48.86 ± 10.64) percent; Serum ALP [4, 18]: 32.93 ± 2.13 μmole of p-nitrophenol formed/min/L; Serum ALP, hepatoprotective activity percent [4, 18]: (77.31 ± 5.13) percent; Serum Bilirubin [4, 18]: 0.29 ± 0.02 mg %; Serum Bilirubin, hepatoprotective activity percent [4, 18]: (76.54 ± 3.66) percent; Serum GOT [4, 18]: 318.96 ± 16.15 Units; Serum GOT, hepatoprotective activity percent [4, 18]: (67.35 ± 2.38) percent; Serum GPT [4, 18]: 457.55 ± 18.18 Units; Serum GPT, hepatoprotective activity percent [4, 18]: (73.41 ± 1.26) percent; Serum Triglycerides [4, 18]: 10.37 ± 0.65 mg %; Serum Triglycerides, hepatoprotective activity percent [4, 18]: (61.02 ± 11.24) percent; Serum ALP [4, 19]: 25.84 ± 2.32 μmole of p-nitrophenol formed/min/L; Serum Bilirubin [4, 19]: 0.16 ± 0.02 mg %; Serum GOT [4, 19]: 82.13 ± 10.59 Units; Serum GPT [4, 19]: 92.18 ± 15.75 Units; Serum Triglycerides [4, 19]: 6.98 ± 0.86 mg %

— patent US6852759B2, “Process for the synthesis of trans-alkenoic acids, use thereof” (priority 2002, dated 2005)
